These results are taken from patent US11166954B2, “Dihydropyrimidine compound and preparation method and use thereof” (SICHUAN KELUN-BIOTECH BIOPHARMACEUTICAL CO., LTD., priority 2016, dated 2021).

For orientation: EC50 means the concentration that produces a half-maximal response. The CC50 is the concentration at which the toxic effect on the cells reaches its halfway point. Broadly, the IC50 is the midpoint of a concentration-inhibition curve. Broadly, the bioavailability is dose-corrected exposure relative to a reference, in per cent. One may read the AUC(0-inf) as the area under the concentration-time curve extrapolated to infinity. High values mean more exposure, low ones less exposure. The Cmax is the maximum level reached in the sampled fluid or tissue.

Series [1] relates to hepatitis type B virus (HBV). Put plainly: Inhibition of HBV DNA replication in HepG2.2.15 cells. The class given is cell-based. The following applies: HepG2.2.15, HBV DNA replication. The method, then: The inhibitory effect of the compounds of the present invention on hepatitis type B virus (HBV) was tested. Cytotoxicity and effects on nucleic acid (DNA) replication level of the virus (HBV) of the compounds of the present invention were tested at a virus-cell level.
HepG2.2.15 cells in the logarithmic growth phase were plated in a 96-well plate at a cell concentration of 40 cells per μL. The cells were incubated in a 5% CO2 incubator at 37° C. for 3 days; and the culture medium was replaced with a new one ([…]) before adding compounds. The concentration of the stock solution of each Example compound is 200 μM.

A short description of series [2]: Cytotoxicity detection (CellTiter-Glo). The following applies: human, HepG2.2.15 cells, highest concentration 150 μM. The format is cell-based. The procedure:
The test compounds were diluted to 30 mM with DMSO, with 30 mM as the highest concentration, the compounds were subjected to three-fold serial dilution to various concentrations. 0.2 μL of the compounds at various concentrations were added to a 384-well plate, HepG2.2.15 cells having a concentration of 2000 cells per 50 μL were added to each well, and the highest concentration of the test compounds was 150 μM. 1 μL of DMSO was added to corresponding wells for control. The plate was incubated in a 5% CO2 incubator at 37° C. for 4 days; and 50 μL of CellTiter-Glo was added to each well after 4 days. The plate was read for detection, and a half cytotoxic concentration (CC50) was calculated.
In general terms: Cellular ATP, detected with luciferase, serves as a proxy for viable cell number.

Series [3] has as its target T1, hERG potassium ion channel (Homo sapiens, UniProt Q12809).
T1 construct: purchased
Put plainly: Predictor hERG Fluorescence Polarization Assay. The class given is binding. As to conditions: for IC50: hERG fluorescence polarization. The source says: In cardiac muscle cells, hERG (human Ether-a-go-go Related Gene) coded potassium channel mediates delayed rectifier potassium currents (IKr). IKr inhibition is the most important mechanism of QT interval prolongation caused by a drug.
Employing the Predictor™ hERG Fluorescence Polarization Assay, the effect of the compounds on a hERG potassium ion channel was detected.

Series [4] is described as follows: In vivo pharmacokinetics (PK) in rats. As to conditions: male, SD, rat; for Kp: liver/plasma, 2 mg/kg. The procedure: The test compounds were administrated to male SD rats by intravenous (iv) and by gavage (po), respectively, the doses of the iv and po administration were respectively 1 mg/kg and 2 mg/kg, the solvent system for iv administration was 5% DMSO:5% solutol:90% physiological saline, and the solvent system for po administration was 0.5% MC. Blood was collected at multiple time points after iv administration and po administration for the PK study. Plasma samples and liver tissue samples were subjected to protein precipitation, followed by LC-MS/MS analysis. The mass spectrometer was API 5500, and the liquid chromatograph is a Waters ACQUITY I CLASS system; the chromatographic column was an Agela ASB C18 column (2.1 mm×50 mm, 1.9 μm); mobile phase A was water+0.1% formic acid, and phase B was acetonitrile; the flow rate was 0.4 mL/min, and the column temperature was 40° C. The ion source was an ESI source in a positive ion mode, and the scanning manner is multiple reaction monitoring (MRM).

Where two headings read alike, the source gives them in different places.

T1 sequence (Q12809 whole entry): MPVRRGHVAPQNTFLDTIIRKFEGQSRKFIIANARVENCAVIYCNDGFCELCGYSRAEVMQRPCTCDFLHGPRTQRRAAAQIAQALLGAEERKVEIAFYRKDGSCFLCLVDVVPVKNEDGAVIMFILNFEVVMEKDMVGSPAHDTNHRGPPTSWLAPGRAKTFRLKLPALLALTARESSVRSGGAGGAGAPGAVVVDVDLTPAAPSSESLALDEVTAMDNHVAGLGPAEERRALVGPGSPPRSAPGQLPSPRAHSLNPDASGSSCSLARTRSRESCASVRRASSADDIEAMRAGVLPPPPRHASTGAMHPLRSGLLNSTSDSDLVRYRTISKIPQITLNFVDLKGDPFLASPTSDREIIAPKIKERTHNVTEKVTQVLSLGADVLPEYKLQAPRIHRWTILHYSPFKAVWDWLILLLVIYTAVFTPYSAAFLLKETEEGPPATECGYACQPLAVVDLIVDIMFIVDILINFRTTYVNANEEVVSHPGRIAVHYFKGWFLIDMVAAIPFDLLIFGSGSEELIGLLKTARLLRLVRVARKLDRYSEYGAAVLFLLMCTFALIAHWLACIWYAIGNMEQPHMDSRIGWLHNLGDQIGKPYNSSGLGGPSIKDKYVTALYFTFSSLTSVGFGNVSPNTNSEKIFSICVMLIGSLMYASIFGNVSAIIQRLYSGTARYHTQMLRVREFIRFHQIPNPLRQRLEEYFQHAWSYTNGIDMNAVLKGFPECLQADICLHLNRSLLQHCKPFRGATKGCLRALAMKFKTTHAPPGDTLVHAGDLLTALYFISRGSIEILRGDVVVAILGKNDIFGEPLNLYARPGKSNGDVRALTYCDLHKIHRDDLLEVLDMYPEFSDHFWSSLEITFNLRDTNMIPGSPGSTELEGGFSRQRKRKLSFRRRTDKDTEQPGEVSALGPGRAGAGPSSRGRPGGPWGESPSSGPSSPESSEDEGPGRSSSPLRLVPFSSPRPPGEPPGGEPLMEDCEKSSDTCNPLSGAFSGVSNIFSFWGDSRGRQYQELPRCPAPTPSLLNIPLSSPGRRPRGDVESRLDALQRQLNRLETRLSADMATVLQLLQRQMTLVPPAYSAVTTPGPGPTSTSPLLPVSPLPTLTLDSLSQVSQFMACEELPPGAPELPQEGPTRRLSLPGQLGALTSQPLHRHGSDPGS

For `CCOC(=O)C1=C(CN2CCOCC2COCC(=O)O)NC(c2nccs2)=N[C@H]1c1ccc(F)cc1Cl` (stereo partly drawn) [10-162 of Example 15, 2-((4-(((R)-6-(2-chloro-4-fluorophenyl)-5-(ethoxycarbonyl)-2-(thiazol-2-yl)-3,6-dihydropyrimidin-4-yl)methyl)morpholin-3-yl)methoxy)acetic Acid], the EC50 in series [1] came to 213 nM. In series [2], this compound displayed a CC50 at 4 days of over 150 µM.

The compound `CCOC(=O)C1=C(CN2CC(COCC(=O)O)CC(F)(F)C2)NC(c2nccs2)=N[C@H]1c1ccc(F)cc1Cl` (stereo partly drawn) [10-136 of Example 16, 2-((1-(((R)-6-(2-chloro-4-fluorophenyl)-5-(ethoxycarbonyl)-2-(thiazol-2-yl)-3,6-dihydropyrimidin-4-yl)methyl)-5,5-difluoropiperidin-3-yl)methoxy)acetic Acid] had an EC50 in series [1] of 110 nM. Moreover, in series [2], it took 122 µM to reach half-maximal cytotoxicity (CC50 at 4 days).

`CCOC(=O)C1=C(CN2CCC(OCC(=O)O)C(F)(F)C2)NC(c2nccs2)=NC1c1ccc(F)cc1Cl` (centres unmarked) [10-95 of Example 5, 2-((1-((6-(2-chloro-4-fluorophenyl)-5-(ethoxycarbonyl)-2-(thiazol-2-yl)-3,6-dihydropyrimidin-4-yl)methyl)-3,3-difluoropiperidin-4-yl)oxy)acetic acid]: the EC50 in series [1] amounted to 314 nM. For the same compound, the midpoint of cytotoxicity in series [2], the CC50 at 4 days, lay at 131 µM. In addition, the IC50 in series [3] was over 10 µM.

As to `COC(=O)C1=C(CN2CCO[C@H](/C=C/C(=O)O)C2)NC(c2nccs2)=N[C@H]1c1ccc(F)c(F)c1C` [10-239 of Example 32, (E)-3-((R)-4-(((S)-6-(3,4-difluoro-2-methylphenyl)-5-(methoxycarbonyl)-2-(thiazol-2-yl)-3,6-dihydropyrimidin-4-yl)methyl)morpholin-2-yl)acrylic Acid], the EC50 in series [1] was found to be 28.9 nM. In addition, the CC50 at 4 days in series [2] was over 150 µM.

Turning to `COC(=O)C1=C(CN2CCO[C@H](/C=C/C(=O)O)C2)NC(c2nccs2)=N[C@H]1c1ccc(F)cc1Br` [10-229 of Example 28, (E)-3-((R)-4-(((R)-6-(2-bromo-4-fluorophenyl)-5-(methoxycarbonyl)-2-(thiazol-2-yl)-3,6-dihydropyrimidin-4-yl)methyl)morpholin-2-yl)acrylic Acid], the EC50 in series [1] is 8.3 nM. The compound further registered a cytotoxic concentration (CC50) at 4 days in series [2] of over 150 µM.

As for `CCOC(=O)C1=C(CN2CC(O)C(F)(F)C2)NC(c2nccs2)=N[C@H]1c1ccc(F)cc1Cl` (stereo partly drawn) [10-40 of Example 11, (4R)-ethyl 4-(2-chloro-4-fluorophenyl)-6-((3,3-difluoro-4-hydroxypyrrolidin-1-yl)methyl)-2-(thiazol-2-yl)-1,4-dihydropyrimidine-5-carboxylate], the EC50 in series [1] was 6.2 nM. The same compound came in with a CC50 at 4 days in series [2] of 73.5 µM. Further, the IC50 in series [3] is over 10 µM.

With `CCOC(=O)C1=C(CN2CC(OCC(=O)O)C(F)(F)C2)NC(c2nccs2)=N[C@H]1c1ccc(F)cc1Cl` (stereo partly drawn) [10-42 of Example 12, 2-((1-(((R)-6-(2-chloro-4-fluorophenyl)-5-(ethoxycarbonyl)-2-(thiazol-2-yl)-3,6-dihydropyrimidin-4-yl)methyl)-4,4-difluoropyrrolidin-3-yl)oxy)acetic acid], in series [1], the EC50 was found to be 164 nM. Also, the CC50 at 4 days in series [2] is over 150 µM. Moreover, the IC50 in series [3] is over 10 µM.

`CCOC(=O)C1=C(CN2CCOC(/C=C/C(=O)O)C2)NC(c2nccs2)=N[C@H]1c1ccc(F)cc1Cl` (stereo partly drawn) [10-180 of Example 14, (E)-3-(4-(((R)-6-(2-chloro-4-fluorophenyl)-5-(ethoxycarbonyl)-2-(thiazol-2-yl)-3,6-dihydropyrimidin-4-yl)methyl)morpholin-2-yl)acrylic Acid] yielded an EC50 in series [1] of 23.5 nM. In series [2], this compound gave a CC50 at 4 days of over 150 µM.

Take `CCOC(=O)C1=C(CN2CCC(O)C(F)(F)C2)NC(c2nccs2)=NC1c1ccc(F)cc1Br` (centres unmarked) [10-93 of Example 2, ethyl 4-(2-bromo-4-fluorophenyl)-6-((3,3-difluoro-4-hydroxypiperidin-1-yl)methyl)-2-(thiazol-2-yl)-1,4-dihydropyrimidine-5-carboxylate]: the IC50 in series [3] is over 10 µM.

In series [1], `COC(=O)C1=C(CN2CCO[C@H](/C=C/C(=O)O)C2)NC(c2nccs2)=N[C@H]1c1ccc(F)c(F)c1Cl` [10-237 of Example 30, (E)-3-((R)-4-(((R)-6-(2-chloro-3,4-difluorophenyl)-5-(methoxycarbonyl)-2-(thiazol-2-yl)-3,6-dihydropyrimidin-4-yl)methyl)morpholin-2-yl)acrylic Acid] returned an EC50 of 10.9 nM. The compound also displayed a half-maximal cytotoxic concentration (CC50) at 4 days in series [2] of over 150 µM.

In series [1], `CCOC(=O)C1=C(CN2CCC(O)C(F)(F)C2)NC(c2nccs2)=NC1c1ccc(F)cc1Cl` (centres unmarked) [10-88 of Example 1, ethyl 4-(2-chloro-4-fluorophenyl)-6-((3,3-difluoro-4-hydroxypiperidin-1-yl)methyl)-2-(thiazol-2-yl)-1,4-dihydropyrimidine-5-carboxylate] returned an EC50 of 24.7 nM. In series [2], this compound had a CC50 at 4 days of 61.1 µM. Besides, the IC50 in series [3] was over 10 µM.

In series [1], `CCOC(=O)C1=C(CN2CC(F)(F)C2)NC(c2nccs2)=N[C@H]1c1ccc(F)cc1Cl` [10-7 of Example 6, (R)-ethyl 4-(2-chloro-4-fluorophenyl)-6-((3,3-difluoroazetidin-1-yl)methyl)-2-(thiazol-2-yl)-1,4-dihydropyrimidine-5-carboxylate] gave an EC50 of 102 nM. Besides, in series [2], the cytotoxic concentration (CC50) at 4 days is 130 µM.

With `CCOC(=O)C1=C(CN2C[C@@H](O)[C@H](F)C2)NC(c2nccs2)=N[C@H]1c1ccc(F)cc1Cl` [10-34 of Example 9, (R)-ethyl 4-(2-chloro-4-fluorophenyl)-6-(((3R,4R)-3-fluoro-4-hydroxypyrrolidin-1-yl)methyl)-2-(thiazol-2-yl)-1,4-dihydropyrimidine-5-carboxylate], the EC50 in series [1] came out at 13.2 nM. The cytotoxic concentration (CC50) at 4 days in series [2] came out at 79.6 µM.

The compound `COC(=O)C1=C(CN2CCO[C@H](/C=C/C(=O)O)C2)NC(c2nccs2)=N[C@H]1c1cccc(F)c1Cl` [10-240 of Example 33, (E)-3-((R)-4-(((R)-6-(2-chloro-3-fluorophenyl)-5-(methoxycarbonyl)-2-(thiazol-2-yl)-3,6-dihydropyrimidin-4-yl)methyl)morpholin-2-yl)acrylic Acid] returned an EC50 in series [1] of 21.1 nM. Moreover, the CC50 at 4 days in series [2] was over 150 µM.

Take `CCOC(=O)C1=C(CN2CCOCC2/C=C/C(=O)O)NC(c2nccs2)=N[C@H]1c1ccc(F)cc1Cl` (stereo partly drawn) [10-182 of Example 13, (E)-3-(4-(((R)-6-(2-chloro-4-fluorophenyl)-5-(ethoxycarbonyl)-2-(thiazol-2-yl)-3,6-dihydropyrimidin-4-yl)methyl)morpholin-3-yl)acrylic Acid]: in series [1], the EC50 worked out at 61.8 nM. Further, in series [2], the CC50 at 4 days is over 150 µM.

`COC(=O)C1=C(CN2CCO[C@H](/C=C/C(=O)O)C2)NC(c2nccs2)=N[C@H]1c1ccc(F)c(F)c1Br` [10-238 of Example 31, (E)-3-((R)-4-(((R)-6-(2-bromo-3,4-difluorophenyl)-5-(methoxycarbonyl)-2-(thiazol-2-yl)-3,6-dihydropyrimidin-4-yl)methyl)morpholin-2-yl)acrylic Acid] gave an EC50 in series [1] of 10.2 nM. In series [2], this compound yielded a CC50 at 4 days of over 150 µM.

Take `CCOC(=O)C1=C(CN2CCO[C@H](CCC(=O)O)C2)NC(c2nccs2)=N[C@H]1c1ccc(F)cc1Cl` [Control compound 2, reference compound]: in series [1], it took 89 nM to reach a half-maximal effect (EC50). Also, the bioavailability in series [4] (plasma, po, by gavage, 2.00 mg/kg, read-out: bioavailability (F)) was found to be 20.9%. Further, the Kp in series [4] (po, po, 2.00 mg/kg, AUCINF liver/plasma, read-out: amount of exposure in liver relative to that in plasma) is about 1.5; in series [4] (po, po, 2.00 mg/kg, Cmax liver/plasma, read-out: blood-drug concentration in liver relative to that in plasma), about 0.5. Besides, the AUC(0-inf) in series [4] (iv, 1.00 mg/kg, plasma) is 2150 ng·h/mL; in series [4] (po, 2.00 mg/kg, liver), 1490 ng·h/mL; in series [4] (po, 2.00 mg/kg, plasma), 897 ng·h/mL. The Cmax in series [4] (iv, 1.00 mg/kg, plasma) was 2470 ng/mL; in series [4] (po, 2.00 mg/kg, liver), 547 ng/mL; in series [4] (po, 2.00 mg/kg, plasma), 1250 ng/mL. Further, the “inhibitory effect on the hERG potassium ion channel (in words)” value in series [3] (criterion: IC50 greater than 10 μM = no inhibitory effect) is “significant inhibitory effect”. Moreover, the IC50 in series [3] is 1 to 10 µM.
